Source: ChEMBL document CHEMBL1146691, “Conformationally-flexible benzamide analogues as dopamine D3 and sigma 2 receptor ligands” (Bioorg Med Chem Lett, 2004)

Assays:
D(4) dopamine receptor = molecular target: T1, D(4) dopamine receptor (Homo sapiens, UniProt P21917)
T1 sequence (P21917 whole entry): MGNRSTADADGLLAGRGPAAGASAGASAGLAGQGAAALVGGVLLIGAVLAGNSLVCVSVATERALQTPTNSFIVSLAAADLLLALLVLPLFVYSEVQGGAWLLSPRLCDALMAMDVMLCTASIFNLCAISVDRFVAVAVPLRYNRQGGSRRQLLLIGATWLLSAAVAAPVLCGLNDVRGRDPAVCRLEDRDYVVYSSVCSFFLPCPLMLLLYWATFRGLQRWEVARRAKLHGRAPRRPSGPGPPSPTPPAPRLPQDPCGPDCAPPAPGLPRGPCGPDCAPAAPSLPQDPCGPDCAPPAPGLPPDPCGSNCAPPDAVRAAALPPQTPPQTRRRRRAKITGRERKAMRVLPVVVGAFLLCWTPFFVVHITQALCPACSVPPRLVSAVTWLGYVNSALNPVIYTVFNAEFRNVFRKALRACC

D(2) dopamine receptor = D(2) dopamine receptor (Rattus norvegicus, UniProt P61169); assay: biochemical
D(3) dopamine receptor = D(3) dopamine receptor (Rattus norvegicus, UniProt P19020); assay: biochemical
Chain of D(3) dopamine receptor (P19020 whole entry): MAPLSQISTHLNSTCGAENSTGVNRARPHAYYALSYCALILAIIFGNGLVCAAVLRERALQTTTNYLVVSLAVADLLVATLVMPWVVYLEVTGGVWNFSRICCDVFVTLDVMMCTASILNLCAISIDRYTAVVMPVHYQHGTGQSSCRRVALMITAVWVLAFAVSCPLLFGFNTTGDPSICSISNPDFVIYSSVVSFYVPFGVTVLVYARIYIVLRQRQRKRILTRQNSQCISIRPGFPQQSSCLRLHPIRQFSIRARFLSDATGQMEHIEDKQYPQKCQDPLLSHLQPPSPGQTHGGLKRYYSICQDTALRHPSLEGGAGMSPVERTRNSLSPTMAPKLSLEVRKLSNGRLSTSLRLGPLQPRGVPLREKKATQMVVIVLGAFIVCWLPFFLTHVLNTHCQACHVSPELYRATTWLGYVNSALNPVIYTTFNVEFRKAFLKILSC

Chain of D(2) dopamine receptor (P61169 whole entry): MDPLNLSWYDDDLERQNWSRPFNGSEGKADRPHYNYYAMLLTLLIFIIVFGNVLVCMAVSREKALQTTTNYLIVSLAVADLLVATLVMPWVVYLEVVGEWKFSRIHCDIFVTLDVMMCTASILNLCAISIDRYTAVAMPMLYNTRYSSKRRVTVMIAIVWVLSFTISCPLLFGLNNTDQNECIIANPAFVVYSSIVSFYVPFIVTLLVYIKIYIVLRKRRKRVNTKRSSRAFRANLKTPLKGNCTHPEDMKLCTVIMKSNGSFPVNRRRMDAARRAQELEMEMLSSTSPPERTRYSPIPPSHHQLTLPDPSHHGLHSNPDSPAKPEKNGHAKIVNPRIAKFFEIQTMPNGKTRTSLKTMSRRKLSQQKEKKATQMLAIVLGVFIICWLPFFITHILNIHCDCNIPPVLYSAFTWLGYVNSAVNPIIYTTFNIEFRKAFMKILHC

Row | Ki (Sigma 2 receptor) [nM] | Ki (D(4) dopamine receptor) [nM] | Ki (D(2) dopamine receptor) [nM] | Ki (D(3) dopamine receptor) [nM] | SMILES
1 | 89.4 | – | – | – | COc1ccc(Br)cc1C(=O)NCCN1CCc2ccccc2C1
2 | 8.2 | – | – | – | COc1cc2c(cc1OC)CN(CCCCNC(=O)c1cc(Br)cc(OC)c1OC)CC2
3 | 47.7 | – | – | – | COc1c(C(=O)NCCN2CCc3ccccc3C2)cc(Br)c2ccccc12
4 | 716 | 47.9 | – | – | COc1cc(Br)cc(C(=O)NCCN2CCc3ccccc3C2)c1OC
5 | – | – | 89 | 1.4 | O=C(NCCCCN1CCN(c2cccc(Cl)c2Cl)CC1)c1cccc2c1-c1ccccc1C2=O
6 | 21.2 | – | – | – | COc1cc2c(cc1OC)CN(CCNC(=O)c1cc(Br)c3ccccc3c1OC)CC2
7 | 75 | 800 | – | – | COc1cc(Br)cc(C(=O)NCCCCN2CCN(c3cccc(Cl)c3Cl)CC2)c1OC
8 | – | – | 33 | 3.9 | COc1cc2c(cc1OC)CN(Cc1ccc(-c3cc(Br)cc(OC)c3OC)[nH]1)CC2
9 | 12.4 | – | – | – | COc1cc2c(cc1OC)CN(CCNC(=O)c1cc(Br)ccc1OC)CC2
10 | 17.6 | – | – | – | COc1cc2c(cc1OC)CN(CCCCNC(=O)c1cc(Br)c3ccccc3c1OC)CC2
11 | – | – | 217 | 1.4 | O=C(NCCCCN1CCN(c2cccc(Cl)c2Cl)CC1)c1ccc2c(c1)Cc1ccccc1-2
12 | 13.3 | – | – | – | COc1cc2c(cc1OC)CN(CCNC(=O)c1cc(C)ccc1OC)CC2
13 | 70 | – | – | 0.4 | COc1c(C(=O)NC2CCN(C3C4CC5CC(C4)CC3C5)C2)cc(Br)c2ccccc12 (stereo unspecified)
14 | 16.4 | 265 | – | – | COc1cc2c(cc1OC)CN(CCNC(=O)c1cc(Br)cc(OC)c1OC)CC2
15 | 25 | – | – | – | COc1c(C(=O)NC[C@H]2CCCN2C2CCCCC2)cc(Br)c2ccccc12

Row | SMILES | Ki (Sigma 2 receptor) [nM] | Ki (D(4) dopamine receptor) [nM] | Ki (D(2) dopamine receptor) [nM] | Ki (D(3) dopamine receptor) [nM]
16 | COc1c(C(=O)NCCN2CCN(c3cccc(Cl)c3Cl)CC2)cc(Br)c2ccccc12 | – | – | > 10000 | 8
17 | COc1cc(Br)cc(-c2ccc(CN3CCc4ccccc4C3)[nH]2)c1OC | – | – | 30 | 3.8
